The values that follow come from article PMC13600695, “Identifying a novel mechanism of L-leucine uptake in Mycobacterium tuberculosis using a chemical genomic approach” (eLife, 2026).

SMILES strings stand for the structures.

The target of the experiment is PpsB (6x His-PpsB) (Mycobacterium tuberculosis, UniProt P9WQE5). Kind of experiment: biochemical.
PpsB (6x His-PpsB), sequence (P9WQE5 whole entry): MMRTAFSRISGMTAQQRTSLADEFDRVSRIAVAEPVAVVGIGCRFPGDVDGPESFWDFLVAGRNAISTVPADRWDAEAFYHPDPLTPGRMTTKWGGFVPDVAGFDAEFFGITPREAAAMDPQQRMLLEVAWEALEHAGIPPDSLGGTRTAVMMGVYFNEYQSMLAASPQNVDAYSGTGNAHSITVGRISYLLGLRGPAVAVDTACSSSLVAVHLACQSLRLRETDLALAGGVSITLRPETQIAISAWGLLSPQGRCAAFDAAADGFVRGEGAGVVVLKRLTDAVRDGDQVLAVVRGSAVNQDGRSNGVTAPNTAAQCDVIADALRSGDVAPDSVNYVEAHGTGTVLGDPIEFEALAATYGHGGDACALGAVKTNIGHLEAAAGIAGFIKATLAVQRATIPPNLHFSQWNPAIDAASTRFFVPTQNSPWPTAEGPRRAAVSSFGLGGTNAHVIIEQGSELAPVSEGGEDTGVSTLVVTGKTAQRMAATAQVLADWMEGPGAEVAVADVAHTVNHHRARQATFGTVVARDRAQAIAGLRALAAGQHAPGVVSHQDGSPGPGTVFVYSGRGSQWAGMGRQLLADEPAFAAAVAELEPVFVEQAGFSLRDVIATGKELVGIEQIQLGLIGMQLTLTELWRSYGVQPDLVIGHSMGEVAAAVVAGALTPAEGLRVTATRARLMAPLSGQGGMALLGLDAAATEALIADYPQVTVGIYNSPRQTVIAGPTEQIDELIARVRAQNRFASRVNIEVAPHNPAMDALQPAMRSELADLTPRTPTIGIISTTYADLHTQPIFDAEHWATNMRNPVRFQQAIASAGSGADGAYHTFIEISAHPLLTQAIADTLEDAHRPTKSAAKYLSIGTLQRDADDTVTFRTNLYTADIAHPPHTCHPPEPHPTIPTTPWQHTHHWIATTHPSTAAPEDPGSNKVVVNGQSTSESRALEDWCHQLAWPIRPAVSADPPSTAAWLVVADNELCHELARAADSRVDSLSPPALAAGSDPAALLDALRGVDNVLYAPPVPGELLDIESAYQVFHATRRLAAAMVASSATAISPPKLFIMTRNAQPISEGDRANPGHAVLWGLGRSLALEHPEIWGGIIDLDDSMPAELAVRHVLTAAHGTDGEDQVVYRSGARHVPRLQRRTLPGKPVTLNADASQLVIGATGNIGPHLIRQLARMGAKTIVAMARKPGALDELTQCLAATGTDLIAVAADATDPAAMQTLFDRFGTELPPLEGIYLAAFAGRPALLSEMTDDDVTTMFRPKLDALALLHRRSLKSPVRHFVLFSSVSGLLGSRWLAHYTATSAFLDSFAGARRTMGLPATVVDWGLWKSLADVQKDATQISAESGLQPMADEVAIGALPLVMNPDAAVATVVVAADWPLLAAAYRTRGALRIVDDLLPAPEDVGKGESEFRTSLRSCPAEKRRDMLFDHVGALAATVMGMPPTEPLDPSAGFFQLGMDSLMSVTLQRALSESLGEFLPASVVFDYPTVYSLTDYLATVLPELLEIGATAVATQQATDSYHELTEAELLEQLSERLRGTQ

For `C/C(=N\NC(=N)N)c1cc(NC(=O)CCCCCCCCC(=O)Nc2cc(/C(C)=N/NC(=N)N)cc(/C(C)=N/NC(=N)N)c2)cc(/C(C)=N/NC(=N)N)c1` [semapimod], the Kd was 110 nM.

By Kd is commonly meant the concentration at which binding is half-saturated. A high value points to weaker binding.
